From US20170107212A1, “NOVEL COMPOUNDS” (Bayer Pharma Aktiengesellschaft, priority 2014, published 2017)

Key:
HCT116 FOPFlash = experiment: Control reporter assay, HCT116 FOP control vector (non-functional TCF elements), luciferase expression; assay type: cell-based; settings: HCT116 FOP control reporter cells, 36 hours incubation, dilution series 50 μM to 15 nM
Experimental: In a parallel approach, HCT116 cells were cotransfected with the FOP control vector and pcDNA3. The FOP vector is identical to the TOP construct, but it contains instead of functional TCF elements a randomized, non-functional sequence. For this transfection a stable transfected cell line was generated as well.
(§1) In preparation of the assay, the two cell lines were plated 24 hours before at 10000 cells per well of a 384 micro titre plate (MTP) in 30 μL growth medium. Selective inhibitory activity for small molecules on the mutated Wnt pathway was determined after parallel incubation of both (TOP and FOP) HCT116 reporter cell lines with a compound dilution series from 50 μM to 15 nM in steps of 3.16-fold dilutions in CAFTY buffer (130 mM NaCl, 5 mM KCl, 20 mM HEPES, 1 mM MgCl2, 5 mM NaHCO3, pH 7.4) containing 2 mM Ca^2+ and 0.01% BSA. The compounds were thereby serially prediluted in 100% DMSO and thereafter in addition 50 fold into the CAFTY compound dilution buffer (described above). From this dilution 10 μL were added to the cells in 30 μL growth medium and incubated for 36 hours at 37° C. and 5% CO2. Thereafter luciferase assay buffer (1:1 mixture of luciferase substrate buffer (20 mM Tricine, 2.67 mM MgSO4, 0.1 mM EDTA, 4 mM DTT, 270 μM Coenzyme A, 470 μM Luciferin, 530 μM ATP, ph adjusted to pH 7.8 with a sufficient volume of 5M NaOH) and Triton buffer (30 mL Triton X-100, 115 mL glycerol, 308 mg Dithiothreitol, 4.45 g Na2HPO4.2H2O, 3.03 g TRIS HCl, ad 1 l H20, pH 7.8) was added as equal volume to the compound solution on the cells to determine luciferase expression as a measure of Wnt signaling activity in a luminometer.

[1] = tested on: constitutive active colorectal cancer cell (CRC) Wnt pathway, HCT116 TOPFlash; experiment: Cellular reporter assay, HCT116 Super TopFlash (constitutive active Wnt pathway), luciferase expression; assay type: cell-based; settings: HCT116 Super TopFlash reporter cells, 36 hours incubation, dilution series 50 μM to 15 nM
Experimental: In order to discover and characterize small molecules which inhibit the constitutive active colorectal cancer cell (CRC) Wnt pathway, a cellular reporter assay was employed. The corresponding assay cell was generated by transfection of the colorectal cancer cell line HCT116 (ATCC, #CCL-247) with the Super TopFlash vector (Morin, Science 275, 1997, 1787-1790; Molenaar et al., Cell 86 (3), 1996, 391-399). The HCT116 cell line is cultivated at 37° C. and 5% CO2 in DMEM/F-12 (Life Technologies, #11320-074), supplemented with 2 mM glutamine, 20 mM HEPES, 1.4 mM pyruvate, 0.15% Na-bicarbonate and 10% foetal bovine serum (GIBCO, #10270), this cancer cell line is pathophysiological relevant since it carries a deletion of position S45 in the β-catenin gene, leading to constitutive active Wnt signaling. Stable transfectants were generated by cotransfection with pcDNA3 and selection of stable transfected cells with 1 mg/ml G418.
as §1

Structure (SMILES)	IC50 (HCT116 FOPFlash; Homo sapiens, HCT-116, 36 h) [µM]	IC50 ([1]; Homo sapiens, HCT-116, 36 h) [µM]	other results
CN1CCN(CC(=O)Nc2cc(C(=O)Nc3nnc(-c4ncccc4F)s3)ccc2OC(F)(F)F)CC1 [Example 43, 4-(2-{[5-{[5-(3-fluoropyridin-2-yl)-1,3,4-thiadiazol-2-yl]carbamoyl}-2-(trifluoromethoxy)phenyl]amino}-2-oxoethyl)-1-methylpiperazin-1-ium hexafluorophosphate]			IC50 (HCT116 FOPFlash; Homo sapiens, HCT-116): 32 µM; IC50 ([1]; Homo sapiens, HCT-116): 2 µM
Nc1ccc(-c2nnc(NC(=O)c3ccc(OC(F)(F)F)c(NC(=O)CN4CCOCC4)c3)s2)cn1 [Example 55, N-[5-(6-aminopyridin-3-yl)-1,3,4-thiadiazol-2-yl]-3-[(morpholin-4-ylacetyl)amino]-4-(trifluoromethoxy)benzamide]	≥ 50	0.24	
Nc1ncc(-c2ccc(NC(=O)c3ccc(OC(F)(F)F)c(NC(=O)CN4CCOCC4)c3)nc2)cn1 [Example 17, N-[5-(2-aminopyrimidin-5-yl)pyridin-2-yl]-3-[(morpholin-4-ylacetyl)amino]-4-(trifluoromethoxy)benzamide]	≥ 50	0.12	
CN1CCN(CC(=O)Nc2cc(C(=O)Nc3nnc(-c4cnccn4)s3)ccc2OC2CC2)CC1 [Example 60, 4-(cyclopropyloxy)-3-{[(4-methylpiperazin-1-yl)acetyl]amino}-N-[5-(pyrazin-2-yl)-1,3,4-thiadiazol-2-yl]benzamide]	≥ 50	4.4	
CN1CCN(CC(=O)Nc2cc(C(=O)Nc3ccc(-c4cnc(N)nc4)cn3)ccc2OC(F)(F)F)CC1 [Example 12, N-[5-(2-aminopyrimidin-5-yl)pyridin-2-yl]-3-{[(4-methylpiperazin-1-yl)acetyl]amino}-4-(trifluoromethoxy)benzamide]	≥ 50	0.132	
O=C(CN1CCOCC1)Nc1cc(C(=O)Nc2ccc(-c3cncnc3)cn2)ccc1OC1CC1 [Example 75, 4-(cyclopropyloxy)-3-[(morpholin-4-ylacetyl)amino]-N-[5-(pyrimidin-5-yl)pyridin-2-yl]benzamide]	≥ 50	0.037	
CN1CCN(CC(=O)Nc2cc(C(=O)Nc3nnc(-c4ccncc4)s3)ccc2OC(F)(F)F)CC1 [Example 83, 3-{[(4-methylpiperazin-1-yl)acetyl]amino}-N-[5-(pyridin-4-yl)-1,3,4-thiadiazol-2-yl]-4-(trifluoromethoxy)benzamide]	≥ 50	26.3	
CN1CCN(CC(=O)Nc2cc(C(=O)Nc3nnc(-c4cnccc4F)s3)ccc2OC(F)(F)F)CC1 [Example 109, N-[5-(4-fluoropyridin-3-yl)-1,3,4-thiadiazol-2-yl]-3-{[(4-methylpiperazin-1-yl)acetyl]amino}-4-(trifluoromethoxy}benzamide]	≥ 50	32	
COc1ccc(C(=O)Nc2nnc(-c3cnccc3C)s2)cc1NC(=O)CN1CCOCC1 [Example 106, 4-methoxy-N-[5-(4-methylpyridin-3-yl)-1,3,4-thiadiazol-2-yl]-3-[(morpholin-4-ylacetyl)amino]benzamide]	≥ 50	≥ 50	
Nc1cc(-c2nnc(NC(=O)c3ccc(OC(F)(F)F)c(NC(=O)CN4CCOCC4)c3)s2)ccn1 [Example 98, N-[5-(2-aminopyridin-4-yl)-1,3,4-thiadiazol-2-yl]-3-[(morpholin-4-ylacetyl)amino)-4-(trifluoromethoxy)benzamide]	≥ 50	≥ 50	
CN1CCN(CC(=O)Nc2cc(C(=O)Nc3nnc(-c4cccnc4)s3)ccc2OC(F)(F)F)CC1 [Example 21, 3-{[(4-methylpiperazin-1-yl)acetyl]amino}-N-[5-(pyridin-3-yl)-1,3,4-thiadiazol-2-yl]-4-(trifluoromethoxy)benzamide]			IC50 (HCT116 FOPFlash): ≥ 50 µM; IC50 [1]: 0.315 µM
O=C(CN1CCOCC1)Nc1cc(C(=O)Nc2nnc(-c3cccnc3)s2)ccc1OC1COC1 [Example 113, 3-[(morpholin-4-ylacetyl)amino)-4-(oxetan-3 yloxy)-N-[5-(pyridin-3-yl)-1,3,4-thiadiazol-2-yl]benzamide]	≥ 50	27	
O=C(CN1CCOCC1)Nc1cc(C(=O)Nc2nnc(-c3cnccn3)s2)ccc1OC1CC1 [Example 117, 4-(cyclopropyloxy)-3-[(morpholin-4-ylacetyl)amino]-N-[5-(pyrazin-2-yl)-1,3,4-thiadiazol-2-yl]benzamide]	≥ 50	≥ 50	

Further lines, with some results ahead:

IC50 (HCT116 FOPFlash; Homo sapiens, HCT-116, 36 h) [µM]	IC50 ([1]; Homo sapiens, HCT-116, 36 h) [µM]	Structure (SMILES)	other results
≥ 50	≥ 50	O=C(CN1CCOCC1)Nc1cc(C(=O)Nc2nnc(-c3ccncc3)s2)ccc1OC(F)(F)F [Example 81, 3-[(morpholin-4-ylacetyl)amino]-N-[5-(pyridin-4-yl)-1,3,4-thiadiazol-2-yl]-4-(trifluoromethoxy)benzamide]	
≥ 50	1.47	CN1CCN(CC(=O)Nc2cc(C(=O)Nc3nnc(-c4cnc(N)s4)s3)ccc2OC(F)(F)F)CC1 [Example 66, N-[5-(2-amino-1,3-thiazol-5-yl)-1,3,4-thiadiazol-2-yl]-3-{[(4-methylpiperazin-1-yl)acetyl]amino}-4-(trifluoromethoxy)benzamide]	
≥ 50	1.86	CN1CCN(CC(=O)Nc2cc(C(=O)Nc3nnc(-c4cncs4)s3)ccc2OC(F)(F)F)CC1 [Example 68, 3-{[(4-methylpiperazin-1-yl)acetyl]amino}-N-[5-(1,3-thiazol-5-yl)-1,3,4-thiadiazol-2-yl]-4-(trifluoromethoxy)benzamide]	
≥ 50	0.47	Cc1cncc(-c2nnc(NC(=O)c3ccc(OC(F)(F)F)c(NC(=O)CN4CCOCC4)c3)s2)c1 [Example 56, N-[5-(5-methylpyridin-3-yl)-1,3,4-thiadiazol-2-yl]-3-[(morpholin-4-ylacetyl)amino]-4-(trifluoromethoxy)benzamide]	
≥ 50	0.268	CN1CCN(CC(=O)Nc2cc(C(=O)Nc3nnc(-c4ccc(N)nc4)s3)ccc2OC(F)(F)F)CC1 [Example 38, N-[5-(6-aminopyridin-3-yl)-1,3,4-thiadiazol-2-yl]-3-{[(4-methylpiperazin-1-yl)acetyl]amino}-4-(trifluoromethoxy)benzamide]	
≥ 50	0.845	Cc1cccnc1-c1nnc(NC(=O)c2ccc(OC(F)(F)F)c(NC(=O)CN3CCOCC3)c2)s1 [Example 89, N-[5-(3-methylpyridin-2-yl)-1,3,4-thiadiazol-2-yl]-3-[(morpholin-4-ylacetyl)amino]-4-(trifluoromethoxy)benzamide]	
≥ 50	3.7	COCCCOc1ccc(C(=O)Nc2nnc(-c3cnccc3C)s2)cc1NC(=O)CN1CCOCC1 [Example 74, 4-(3-methoxypropoxy)-N-[5-(4-methylpyridin-3-yl)-1,3,4-thiadiazol-2-yl)-3-[(morpholin-4-ylacetyl)amino]benzamide]	
≥ 50	0.24	Cc1ccncc1-c1nnc(NC(=O)c2cc(NC(=O)CN3CCN(C)CC3)c(OC(F)(F)F)cc2F)s1 [Example 78, 2-fluoro-5-{[(4-methylpiperazin-1-yl)acetyl]amino}-N-[5-(4-methylpyridin-3-yl)-1,3,4-thiadiazol-2-yl]-4-(trifluoromethoxy)benzamide]	
≥ 50	1	COCCOc1ccc(C(=O)Nc2nnc(-c3cnccc3C)s2)cc1NC(=O)CN1CCN(C)CC1 [Example 73, 4-(2-methoxyethoxy)-3-{[(4-methylpiperazin-1-yl)acetyl]amino}-N-[5-(4-methylpyridin-3-yl)-1,3,4-thiadiazol-2-yl]benzamide]	
46	1.11	CN1CCN(CC(=O)Nc2cc(C(=O)Nc3nnc(-c4cscn4)s3)ccc2OC(F)(F)F)CC1 [Example 64, 3-{[(4-methylpiperazin-1-yl)acetyl]amino}-N-[5-(1,3-thiazol-4-yl)-1,3,4-thiadiazol-2-yl]-4-(trifluoromethoxy)benzamide]	
